Source: patent US8426616B2, “Triptolide lactone ring derivatives as immunomodulators and anticancer agents” (priority 2004, dated 2013)
Entries after “also recorded” stand apart in the source; their conditions may differ.

Legend:
[1] = system: human T cell lymphoma (Jurkat) cells; details: for cytotoxic activity (MTT assay), compound incubated in human serum: pre-incubation in human serum; for cytotoxic activity (MTT assay, OD570): 24 h culture with compound
Protocol: Test compounds were dissolved in DMSO at a concentration of 20 mM. Further dilutions were done in RPMI1640 medium (GIBCO, Rockville, Md.) supplemented with 10% Fetal Calf Serum (HyClone Laboratories, Logan, Utah).
Cytotoxicity of the compounds was determined in a standard MTT assay using Cell Proliferation Kit I (#1 465 007, Roche Diagnostics, Mannheim, Germany). Briefly, human T cell lymphoma (Jurkat) cells (4×10^5 per well) were cultured for 24 h, in 96-well tissue culture plates, in the presence of serial three-fold dilutions of test compounds or medium containing the same concentration of DMSO as in the test samples at each dilution point. The cultures were then supplemented with 10 μl/well MTT reagent for 4 h and then with 0.1 ml/well solubilizing reagent for an additional 16 h. Optical density at 570 nm (OD570) was measured on a ThermoScan microplate reader (Molecular Devices, Menlo Park, Calif.).
The data is presented as OD570 values versus concentration of the compounds. In this case, data is provided for both compounds incubated in human serum and in mouse serum, and for PG796 without incubation.

[2] = system: IL-2 production in Jurkat cells; format: cell-based, human; details: for inhibition of IL-2 production, compound incubated in human serum: pre-incubation in human serum; for inhibition of IL-2 production: Jurkat cells stimulated with anti-CD3 and PMA, 24 h
Protocol: Test samples were diluted to 1 mM in complete tissue culture medium. […] Cells from an exponentially expanding culture of Jurkat human T cell line (#TIB-152 obtained from American Type Culture Collection, Manassas, Va.) were harvested, washed once by centrifugation, re-suspended in complete tissue culture medium, and diluted to a concentration of 2×10^6 cells/ml. A volume of 50 μl of Jurkat cells (1×10^5 cells) was added to wells containing 100 μl of the diluted compounds, 50 μl of PMA (10 ng/ml) was added to each well, and the plates were incubated at 37° C. in a 5% CO2 incubator. After 24 hours, the plates were centrifuged to pellet the cells, 150 μl of supernatant was removed from each well, and the samples were stored at −20° C. The stored supernatants were analyzed for human IL-2 concentration using the Luminex 100 (Luminex Corporation, Austin, Tex.), Luminex microspheres coupled with anti-IL-2 capture antibody, and fluorochrome-coupled anti-IL-2 detection antibody. The data were expressed as pg/ml of IL-2.
The data were plotted as the concentration of compound versus IL-2 concentration. In this case, data is provided for both compounds incubated in human serum and in mouse serum, and for PG796 without incubation.

SMILES | cytotoxic activity (MTT assay), compound incubated in human serum [1] | inhibition of IL-2 production, compound incubated in human serum ([2]; Jurkat cells) | cytotoxic activity (MTT assay, OD570) [1] | cytotoxic activity (MTT assay), compound incubated in mouse serum ([1]; pre-incubation in mouse serum) | cytotoxic activity (MTT assay), compound unincubated ([1]; without serum incubation, compared with serum-incubated compound) | inhibition of IL-2 production [2] | inhibition of IL-2 production, compound incubated in mouse serum ([2]; Jurkat cells, pre-incubation in mouse serum) | inhibition of IL-2 production, compound unincubated ([2]; Jurkat cells, without serum incubation, compared with serum-incubated compound)
CC(C)[C@]12O[C@H]1[C@@H]1O[C@]13[C@]1(O[C@H]1C[C@H]1C4=C(CC[C@@]13C)C(=O)OC4)[C@@H]2OC(=O)CCC(=O)O [triptolide 14-succinate, reference compound] | much less active in these assays than triptolide 14-succinate incubated in mouse serum | much less active in these assays than triptolide 14-succinate incubated in mouse serum |  |  |  |  |  | 
CC(C)[C@]12O[C@H]1[C@@H]1O[C@]13[C@]1(O[C@H]1C[C@H]1c4c(C(=O)c5ccccc5)oc(OC(=O)c5ccccc5)c4CC[C@@]13C)[C@@H]2O [PG796, 18-deoxo-19-dehydro-18-benzoyloxy-19-benzoyl triptolide] | high, and essentially equivalent, activity | high, and essentially equivalent, activity | cytotoxic to Jurkat cells; also recorded: higher level of activity in both assays than the known prodrug, triptolide 14-succinate | high, and essentially equivalent, activity | nearly equivalent activity | higher level of activity in both assays than the known prodrug, triptolide 14-succinate; also recorded: inhibited IL-2 production | high, and essentially equivalent, activity | nearly equivalent activity
CC1OC(=O)C2=C1[C@@H]1C[C@@H]3O[C@@]34[C@H](O)[C@@]3(C(C)C)O[C@H]3[C@@H]3O[C@@]34[C@@]1(C)CC2 (stereo partly drawn) [PG795, 19-methyl triptolide] |  |  | cytotoxic to Jurkat cells; also recorded: significant activity; also recorded: less active than triptolide |  |  | significant activity; also recorded: less active than triptolide; also recorded: inhibited IL-2 production |  | 
